This note sets out measurements from US8623859B2, “Bradykinin B1 antagonists” (Evotec AG, priority 2008, dated 2014).

Usually IC50 stands for the point on the concentration scale where inhibition reaches its midpoint.

Molecules are shown by their SMILES. Where a name gives a salt, the structure may show the parent alone.

For this assay, the target named is T1, human B1 (Homo sapiens, UniProt P46663).
T1 construct: host or cells: CHO-K1
T1 sequence (P46663 1-353): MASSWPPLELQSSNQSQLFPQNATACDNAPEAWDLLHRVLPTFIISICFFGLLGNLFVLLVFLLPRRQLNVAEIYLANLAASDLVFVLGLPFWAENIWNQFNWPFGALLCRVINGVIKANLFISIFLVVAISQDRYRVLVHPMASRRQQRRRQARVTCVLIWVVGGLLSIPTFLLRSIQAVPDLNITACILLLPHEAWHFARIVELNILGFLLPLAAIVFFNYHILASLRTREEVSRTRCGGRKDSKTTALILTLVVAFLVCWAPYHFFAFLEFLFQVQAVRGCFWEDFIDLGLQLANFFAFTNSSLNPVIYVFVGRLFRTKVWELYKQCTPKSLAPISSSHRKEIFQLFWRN
The assay can be described thus: Calcium flux assay for Bradykinin B1 antagonist, CHO-K1 cell line expressing human B1. The note with it: CHO-K1 cells expressing human B1, agonist Lys-(Des-Arg)-Bradykinin, read-out: Potency (IC50 value against human B1). Type of assay: cell-based. In short, it runs like this:
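CHO-K1 cells expressing human B1, loaded with 5 μM Fluo-4AM (2 h, 37° C) in HEPES buffer pH 7.4 with probenecid and 0.1% BSA, were preincubated 30 min at 25° C with compound (8 concentrations, triplicate, 1% DMSO) before B1 agonist addition. Ca2+ fluorescence monitored at 538 nm; background-normalized integrated values plotted against log antagonist concentration.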
On the technique in general: A change in cytosolic calcium serves as a functional read-out for many receptors and channels.

Turning to `Cc1cccc(Cl)c1S(=O)(=O)N(Cc1nc(C(=O)N(C)CCc2ccc(C3=NCCN3)cc2)co1)C1CC1` [Ex 219, 2-({[(2-Chloro-6-methylphenyl)sulfonyl](cyclopropyl)amino}methyl)-N-{2-[4-(4,5-dihydro-1H-imidazol-2-yl)phenyl]ethyl}-N-methyl-1,3-oxazole-4-carboxamide trifluoroacetate], the IC50 lay in the range of 0.01 to 0.1 µM.

On to `Cc1cccc(Cl)c1S(=O)(=O)N(Cc1nc(C(=O)N(C)Cc2ccc(CN3CCCC3)cc2)co1)C1CC1` [Ex 220, 2-({[(2-Chloro-6-methylphenyl)sulfonyl](cyclopropyl)amino}methyl)-N-methyl-N-[4-(pyrrolidin-1-ylmethyl)benzyl]-1,3-oxazole-4-carboxamide trifluoroacetate], for which the IC50 was in the range of 0.1 to 1 µM.

For the molecule `CN(CCc1ccc(C2=NCCN2)cc1)C(=O)c1coc(CN(C2CC2)S(=O)(=O)c2ccccc2C(F)(F)F)n1` [Ex 221, 2-[(Cyclopropyl{[2-(trifluoromethyl)phenyl]sulfonyl}amino)methyl]-N-{2-[4-(4,5-dihydro-1H-imidazol-2-yl)phenyl]ethyl}-N-methyl-1,3-oxazole-4-carboxamide trifluoroacetate], the IC50 was in the range of 0.1 to 1 µM.

Consider `CN(Cc1ccc(CN2CCCC2)cc1)C(=O)c1coc(CN(C2CC2)S(=O)(=O)c2ccccc2C(F)(F)F)n1` [Ex 222, 2-[(Cyclopropyl{[2-(trifluoromethyl)phenyl]sulfonyl}amino)methyl]-N-methyl-N-[4-(pyrrolidin-1-ylmethyl)benzyl]-1,3-oxazole-4-carboxamide trifluoroacetate], for which the IC50 fell in the range of 0.1 to 1 µM.

Take `COc1cc(C)c(S(=O)(=O)N(Cc2nc(C(=O)N3CCC(O)(CN4CCN(C)CC4)CC3)co2)C2CC2)c(C)c1` [Ex 223, N-Cyclopropyl-N-{[4-({4-hydroxy-4-[(4-methylpiperazin-1-yl)methyl]piperidin-1-yl}carbonyl)-1,3-oxazol-2-yl]methyl}-4-methoxy-2,6-dimethylbenzenesulfonamide trifluoroacetate]: the IC50 is less than 0.01 µM.

In the case of `COc1cc(C)c(S(=O)(=O)N(Cc2nc(C(=O)N3CCC(O)(CN4CCOCC4)CC3)co2)C2CC2)c(C)c1` [Ex 224, N-Cyclopropyl-N-[(4-{[4-hydroxy-4-(morpholin-4-ylmethyl)piperidin-1-yl]carbonyl}-1,3-oxazol-2-yl)methyl]-4-methoxy-2,6-dimethylbenzenesulfonamide trifluoroacetate], the IC50 was in the range of 0.01 to 0.1 µM.

`COc1cc(C)c(S(=O)(=O)N(Cc2nc(C(=O)N(C)Cc3ccc4c(c3)CN(C)C4)co2)C2CC2)c(C)c1` [Ex 225, 2-({Cyclopropyl[(4-methoxy-2,6-dimethylphenyl)sulfonyl]amino}methyl)-N-methyl-N-[(2-methyl-2,3-dihydro-1H-isoindol-5-yl)methyl]-1,3-oxazole-4-carboxamide trifluoroacetate]: the IC50 lay in the range of 0.01 to 0.1 µM.

For the molecule `COc1cc(C)c(S(=O)(=O)N(Cc2nc(C(=O)N3CCN(c4cccnc4)CC3)co2)C2CC2)c(C)c1` [Ex 226, N-Cyclopropyl-4-methoxy-2,6-dimethyl-N-({4-[(4-pyridin-3-ylpiperazin-1-yl)carbonyl]-1,3-oxazol-2-yl}methyl)benzenesulfonamide], the IC50 was 0.1 to 1 µM.

Take `COc1cc(C)c(S(=O)(=O)N(Cc2nc(C(=O)N3CCN(Cc4ccccn4)CC3)co2)C2CC2)c(C)c1` [Ex 227, N-Cyclopropyl-4-methoxy-2,6-dimethyl-N-[(4-{[4-(pyridin-2-ylmethyl)piperazin-1-yl]carbonyl}-1,3-oxazol-2-yl)methyl]benzenesulfonamide trifluoroacetate]: the IC50 was 0.1 to 1 µM.

Consider `COc1cc(C)c(S(=O)(=O)N(Cc2nc(C(=O)N3CCN(CCc4ccccn4)CC3)co2)C2CC2)c(C)c1` [Ex 228, N-Cyclopropyl-4-methoxy-2,6-dimethyl-N-[(4-{[4-(2-pyridin-2-ylethyl)piperazin-1-yl]carbonyl}-1,3-oxazol-2-yl)methyl]benzenesulfonamide trifluoroacetate], for which the IC50 was in the range of 0.01 to 0.1 µM.

Turning to `COc1cc(C)c(S(=O)(=O)N(Cc2nc(C(=O)N3CCC(C(=O)N4CCN(C)CC4)CC3)co2)C2CC2)c(C)c1` [Ex 229, N-Cyclopropyl-4-methoxy-2,6-dimethyl-N-{[4-({4-[(4-methylpiperazin-1-yl)carbonyl]piperidin-1-yl}carbonyl)-1,3-oxazol-2-yl]methyl}benzenesulfonamide trifluoroacetate], the IC50 was in the range of 0.1 to 1 µM.

As for `COc1cc(C)c(S(=O)(=O)N(Cc2nc(C(=O)N3CCN(CC4CCNCC4)CC3)co2)C2CC2)c(C)c1` [Ex 230, N-Cyclopropyl-4-methoxy-2,6-dimethyl-N-[(4-{[4-(piperidin-4-ylmethyl)piperazin-1-yl]carbonyl}-1,3-oxazol-2-yl)methyl]benzenesulfonamide trifluoroacetate], the IC50 was less than 0.01 µM.

Turning to `COc1cc(C)c(S(=O)(=O)N(Cc2nc(C(=O)N3CCC(c4ccncc4)CC3)co2)C2CC2)c(C)c1` [Ex 231, N-Cyclopropyl-4-methoxy-2,6-dimethyl-N-({4-[(4-pyridin-4-ylpiperidin-1-yl)carbonyl]-1,3-oxazol-2-yl}methyl)benzenesulfonamide], the IC50 lay within 0.01 to 0.1 µM.

On to `COc1cc(C)c(S(=O)(=O)N(Cc2nc(C(=O)N3CCN(Cc4ccncc4F)CC3)co2)C2CC2)c(C)c1` [Ex 232, N-Cyclopropyl-N-{[4-({4-[(3-fluoropyridin-4-yl)methyl]piperazin-1-yl}carbonyl)-1,3-oxazol-2-yl]methyl}-4-methoxy-2,6-dimethylbenzenesulfonamide trifluoroacetate], for which the IC50 is 0.1 to 1 µM.

In the case of `COc1cc(C)c(S(=O)(=O)N(Cc2nc(C(=O)N3CCN(Cc4c(Cl)cncc4Cl)CC3)co2)C2CC2)c(C)c1` [Ex 233, N-Cyclopropyl-N-{[4-({4-[(3,5-dichloropyridin-4-yl)methyl]piperazin-1-yl}carbonyl)-1,3-oxazol-2-yl]methyl}-4-methoxy-2,6-dimethylbenzenesulfonamide trifluoroacetate], the IC50 lay in the range of 0.01 to 0.1 µM.

Consider `COc1cc(C)c(S(=O)(=O)N(Cc2nc(C(=O)N3CCN(Cc4ccc(F)nc4)CC3)co2)C2CC2)c(C)c1` [Ex 234, N-Cyclopropyl-N-{[4-({4-[(6-fluoropyridin-3-yl)methyl]piperazin-1-yl}carbonyl)-1,3-oxazol-2-yl]methyl}-4-methoxy-2,6-dimethylbenzenesulfonamide trifluoroacetate], for which the IC50 was 0.1 to 1 µM.

For `COc1cc(C)c(S(=O)(=O)N(Cc2nc(C(=O)N3CCN(Cc4ccc(OC)nc4)CC3)co2)C2CC2)c(C)c1` [Ex 235, N-Cyclopropyl-4-methoxy-N-{[4-({4-[(6-methoxypyridin-3-yl)methyl]piperazin-1-yl}carbonyl)-1,3-oxazol-2-yl]methyl}-2,6-dimethylbenzenesulfonamide trifluoroacetate], the IC50 is less than 0.01 µM.

Turning to `COc1cc(C)c(S(=O)(=O)N(Cc2nc(C(=O)N3CCN(Cc4ccc(C(F)(F)F)nc4)CC3)co2)C2CC2)c(C)c1` [Ex 236, N-Cyclopropyl-4-methoxy-2,6-dimethyl-N-({4-[(4-{[6-(trifluoromethyl)pyridin-3-yl]methyl}piperazin-1-yl)carbonyl]-1,3-oxazol-2-yl}methyl)benzenesulfonamide trifluoroacetate], the concentration for half-maximal inhibition (IC50) is 0.01 to 0.1 µM.
